Test results from patent US9255090B2, “Heterocyclyl derivatives and their use as prostaglandin D2 receptor modulators” (Actelion Pharmaceuticals Ltd., priority 2012, dated 2016).

Legend:
hCRTH2 receptor = hCRTH2 receptor (Homo sapiens (Human), UniProt Q9Y5Y4); assay: hCRTH2 receptor membranes radioligand (3H-PGD2) displacement assay; type: binding; conditions: 3H-PGD2 radioligand displacement, HEK293-hCRTH2 membranes
Procedure, shortened: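 HEK293-hCRTH2 membranes, 20 μg/well; 3H-PGD2 added at 2.5 nM; binding buffer 50 mM Tris, 10 mM MnCl2, 1 mM EDTA, pH 7.0; 90 min RT; GF/C filtration, scintillation count. Nonspecific binding: PGD2 at […].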

eosinophils = assay: Eosinophil shape change assay with human plasma; type: cell-based; conditions: human plasma (50%), PGD2 100 nM activation, antagonistic activity
Procedure, shortened: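 Human polymorphonuclear cells stained with anti-CD49d-APC, combined with compound-preincubated human plasma (50% of final volume, 4×10^6 cells/ml) for 10 min at 37° C., then stimulated 5 min with 100 nM PGD2 and fixed. Flow cytometry scored percent eosinophils with increased forward scatter.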

Chain of hCRTH2 receptor (Q9Y5Y4 whole entry): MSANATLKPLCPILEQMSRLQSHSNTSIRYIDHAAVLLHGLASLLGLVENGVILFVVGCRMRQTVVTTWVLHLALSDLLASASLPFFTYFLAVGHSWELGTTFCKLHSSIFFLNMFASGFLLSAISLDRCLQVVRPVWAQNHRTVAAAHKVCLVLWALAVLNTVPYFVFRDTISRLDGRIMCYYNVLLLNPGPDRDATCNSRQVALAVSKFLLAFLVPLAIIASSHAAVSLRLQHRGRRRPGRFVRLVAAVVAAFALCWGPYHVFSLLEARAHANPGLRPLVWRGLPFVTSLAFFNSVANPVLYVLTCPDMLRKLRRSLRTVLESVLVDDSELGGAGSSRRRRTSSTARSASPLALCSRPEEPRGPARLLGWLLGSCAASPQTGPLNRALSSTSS

Row | SMILES | IC50 (hCRTH2 receptor) [nM] | IC50 (eosinophils; Homo sapiens, Eosinophil) [nM] | IC50 (eosinophils) [nM]
1 | CCOc1cc(CC(=O)O)ccc1-c1ccc(F)c2c1CN(C(=O)CC1OCCc3ccccc31)CC2 (centres unmarked) [Example 205, {3-Ethoxy-4-[5-fluoro-2-(2-isochroman-1-yl-acetyl)-1,2,3,4-tetrahydro-isoquinolin-8-yl]-phenyl}-acetic acid] | 1 | 17 | –
2 | CCOc1cc(CC(=O)O)ccc1-c1ccc(F)c2c1CN(C(=O)CC1OCCc3ccccc31)CC2 (centres unmarked) [Example 206, {3-Ethoxy-4-[5-fluoro-2-(2-isochroman-1-yl-acetyl)-1,2,3,4-tetrahydro-isoquinolin-8-yl]-phenyl}-acetic acid] | 2.4 | – | 14
3 | CCOc1ccc(CC(=O)O)cc1-c1ccc(F)c2c1CN(C(=O)C(C)Cc1ccccc1)CC2 (centres unmarked) [Example 214] | 3.1 | 11 | –
4 | CC(C)Oc1cc(CC(=O)O)ccc1-c1ccc(F)c2c1CN(C(=O)OCc1ccccc1)CC2 [Example 217, 8-(4-Carboxymethyl-2-isopropoxy-phenyl)-5-fluoro-3,4-dihydro-1H-isoquinoline-2-carboxylic acid benzyl ester] | 2.3 | 46 | –
5 | CCOc1ccc(CC(=O)O)cc1-c1ccc(F)c2c1CN(C(=O)C[C@@H](C)c1ccccc1)CC2 [Example 221, {4-Ethoxy-3-[5-fluoro-2-((R)-3-phenyl-butyryl)-1,2,3,4-tetrahydro-isoquinolin-8-yl]-phenyl}-acetic acid] | 1.2 | 34 | –
6 | CCOc1ccc(CC(=O)O)cc1-c1ccc(F)c2c1CN(C(=O)CC1(c3ccccc3)CC1)CC2 [Example 222, (4-Ethoxy-3-{5-fluoro-2-[2-(1-phenyl-cyclopropyl)-acetyl]-1,2,3,4-tetrahydro-isoquinolin-8-yl}-phenyl)-acetic acid] | 26.4 | 21 | –
7 | CCOc1cc(CC(=O)O)ccc1-c1ccc(F)c2c1CN(C(=O)CC1(c3ccccc3)CC1)CC2 [Example 230, (3-Ethoxy-4-{5-fluoro-2-[2-(1-phenyl-cyclopropyl)-acetyl]-1,2,3,4-tetrahydro-isoquinolin-8-yl}-phenyl)-acetic acid] | 1 | 19 | –
8 | CCOc1cc(CC(=O)O)ccc1-c1ccc(F)c2c1CN(C(=O)C[C@@H](C)c1ccccc1)CC2 [Example 234, {3-Ethoxy-4-[5-fluoro-2-((R)-3-phenyl-butyryl)-1,2,3,4-tetrahydro-isoquinolin-8-yl]-phenyl}-acetic acid] | 0.9 | 47 | –
9 | CCOc1cc(CC(=O)O)ccc1-c1ccc(F)c2c1CN(C(=O)CC(C)(C)c1ccccc1)CC2 [Example 238, {3-Ethoxy-4-[5-fluoro-2-(3-methyl-3-phenyl-butyryl)-1,2,3,4-tetrahydro-isoquinolin-8-yl]-phenyl}-acetic acid] | 0.6 | 15 | –

Now from value to compound:

Row | IC50 (hCRTH2 receptor) [nM] | IC50 (eosinophils; Homo sapiens, Eosinophil) [nM] | IC50 (eosinophils) [nM] | SMILES
10 | 2.6 | 7 | – | CCOc1ccc(CC(=O)O)cc1-c1ccc(F)c2c1CN(C(=O)CC(C)c1ccc(F)cc1)CC2 (centres unmarked) [Example 211, (4-Ethoxy-3-{5-fluoro-2-[3-(4-fluoro-phenyl)-butyryl]-1,2,3,4-tetrahydro-isoquinolin-8-yl}-phenyl)-acetic acid]
11 | 15 | 19 | – | CCOc1ccc(CC(=O)O)cc1-c1ccc(F)c2c1CN(C(=O)CC(C)(C)c1ccc(F)cc1)CC2 [Example 223, (4-Ethoxy-3-{5-fluoro-2-[3-(4-fluoro-phenyl)-3-methyl-butyryl]-1,2,3,4-tetrahydro-isoquinolin-8-yl}-phenyl)-acetic acid]
12 | 11.7 | 37 | – | CCOc1ccc(CC(=O)O)cc1-c1ccc(F)c2c1CN(C(=O)CC(C)(C)c1ccccc1)CC2 [Example 225, {4-Ethoxy-3-[5-fluoro-2-(3-methyl-3-phenyl-butyryl)-1,2,3,4-tetrahydro-isoquinolin-8-yl]-phenyl}-acetic acid]
13 | 0.3 | 9 | – | CCOc1cc(CC(=O)O)ccc1-c1ccc(F)c2c1CN(C(=O)CC(C)(C)c1ccc(F)cc1)CC2 [Example 237, (3-Ethoxy-4-{5-fluoro-2-[3-(4-fluoro-phenyl)-3-methyl-butyryl]-1,2,3,4-tetrahydro-isoquinolin-8-yl}-phenyl)-acetic acid]
